Source: PMC11470957, “Principles of paralog-specific targeted protein degradation engaging the C-degron E3 KLHDC2” (Nature Communications, 2024)
“And” between values parts separate entries of the source, which are not always exact repeats. Equal values may be shown once.

What was measured:
[1] = target: KLHDC2^SBD / G382E BRD2^BD2 (Homo sapiens, UniProt P25440+Q9Y2U9, G382E); assay: ITC, ternary complex KLHDC2^SBD with PROTAC-G382E BRD2^BD2
BRD2^BD2 = BRD2^BD2 (Homo sapiens, UniProt P25440); assay: ITC, binary binding to BRD2^BD2
KLHDC2^SBD / BRD2^BD2 = KLHDC2^SBD / BRD2^BD2 (Homo sapiens, UniProt P25440+Q9Y2U9); assay: ITC, ternary complex KLHDC2^SBD with PROTAC-BRD2^BD2
[2] = target: R112A KLHDC2^SBD / BRD3^BD2 (Homo sapiens, UniProt Q15059+Q9Y2U9, R112A); assay: ITC, ternary complex R112A KLHDC2^SBD with PROTAC-BRD3^BD2
KLHDC2 = target: T1, KLHDC2 (Homo sapiens, UniProt Q9Y2U9); assay: Western blot of KLHDC2 levels after cellular dosing
T1 sequence (Q9Y2U9 1-406): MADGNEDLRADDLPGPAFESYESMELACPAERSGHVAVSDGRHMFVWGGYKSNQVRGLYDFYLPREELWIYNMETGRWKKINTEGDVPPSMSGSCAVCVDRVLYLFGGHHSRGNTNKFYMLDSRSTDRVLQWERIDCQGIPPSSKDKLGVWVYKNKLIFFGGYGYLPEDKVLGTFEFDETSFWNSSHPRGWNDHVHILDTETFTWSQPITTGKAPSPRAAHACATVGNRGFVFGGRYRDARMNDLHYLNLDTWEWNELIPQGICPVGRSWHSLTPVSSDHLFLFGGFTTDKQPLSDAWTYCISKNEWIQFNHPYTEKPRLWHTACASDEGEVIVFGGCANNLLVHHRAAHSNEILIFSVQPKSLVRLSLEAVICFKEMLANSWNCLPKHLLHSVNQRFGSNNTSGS

[3] = target: neddylated CRL2^KLHDC2 (tetrameric KLHDC2-EloB/C) (Homo sapiens, UniProt Q15059+Q9Y2U9); assay: Ubiquitylation assay monitoring disruption of the KLHDC2-EloBC tetrameric assembly
[4] = target: KLHDC2^SBD / G386E BRD4^BD2 (Homo sapiens, UniProt O60885+Q9Y2U9, G386E); assay: ITC, ternary complex KLHDC2^SBD with PROTAC-G386E BRD4^BD2
[5] = target: KLHDC2^SBD / E344G BRD3^BD2 (Homo sapiens, UniProt Q15059+Q9Y2U9, E344G); assay: ITC, ternary complex KLHDC2^SBD with PROTAC-E344G BRD3^BD2
KLHDC2^SBD / BRD4^BD2 = KLHDC2^SBD / BRD4^BD2 (Homo sapiens, UniProt O60885+Q9Y2U9); assay: ITC, ternary complex KLHDC2^SBD with PROTAC-BRD4^BD2
[6] = cell: SJ46421-G382E BRD2^BD2, syringe: KLHDC2^SBD
[7] = cell: SJ46421, syringe: BRD2^BD2
[8] = ITC, syringe KLHDC2, cell BRD2BD2-compound, Rep1, Rep2
[9] = cell: PROTAC-BRD2^BD2, syringe: KLHDC2^SBD
[10] = ITC source data Fig4f, N=1, syringe R112A KLHDC2, cell SJ46421-BRD3BD2
[11] = ITC, syringe R112A KLHDC2, cell compound-BRD3BD2, N=1
[12] = cell: SJ46421-BRD3^BD2, syringe: R112A KLHDC2^SBD, n=1
[13] = cell: SJ46421-G386E BRD4^BD2, syringe: KLHDC2^SBD
[14] = cell: SJ46421-E344G BRD3^BD2, syringe: KLHDC2^SBD
[15] = cell: PROTAC-BRD4^BD2, syringe: KLHDC2^SBD

Sequence of KLHDC2^SBD / E344G BRD3^BD2 (Q15059 306-416 E344G, one chain of several): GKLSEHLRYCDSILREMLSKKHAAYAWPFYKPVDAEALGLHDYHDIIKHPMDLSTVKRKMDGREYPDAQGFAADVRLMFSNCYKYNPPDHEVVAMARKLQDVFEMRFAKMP
Sequence of KLHDC2^SBD / BRD2^BD2 (P25440 344-455, one chain of several): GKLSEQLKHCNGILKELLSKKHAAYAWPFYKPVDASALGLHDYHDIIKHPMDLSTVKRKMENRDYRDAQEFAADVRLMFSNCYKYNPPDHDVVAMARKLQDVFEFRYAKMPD
Sequence of KLHDC2^SBD / G382E BRD2^BD2 (P25440 344-455 G382E, one chain of several): as the sequence (P25440 344-455, one chain of several) above, with G39E counted along it
Sequence of BRD2^BD2 (P25440 344-455): as the sequence (P25440 344-455, one chain of several) above
Sequence of R112A KLHDC2^SBD / BRD3^BD2 (Q9Y2U9 15-361 R112A): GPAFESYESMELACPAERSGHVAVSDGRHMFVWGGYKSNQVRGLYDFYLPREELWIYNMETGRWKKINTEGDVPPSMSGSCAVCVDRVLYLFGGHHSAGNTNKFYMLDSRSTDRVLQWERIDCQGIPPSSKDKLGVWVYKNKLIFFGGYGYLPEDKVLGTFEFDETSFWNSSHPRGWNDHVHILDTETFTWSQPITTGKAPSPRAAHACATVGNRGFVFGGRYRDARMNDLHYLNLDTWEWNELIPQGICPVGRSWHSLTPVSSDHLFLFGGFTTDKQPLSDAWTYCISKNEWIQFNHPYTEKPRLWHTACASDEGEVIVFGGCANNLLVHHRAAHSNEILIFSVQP
Sequence of R112A KLHDC2^SBD / BRD3^BD2 (Q15059 306-416): as the sequence (Q15059 306-416 E344G, one chain of several) above, with G39E counted along it

For Cc1sc2c(c1C)C(c1ccc(Cl)cc1)=N[C@@H](CC(=O)N1CCN(CCOc3cccc4ccc(-c5nc(CC(=O)NCC(=O)O)cs5)cc34)CC1)c1nnc(C)n1-2 [SJ46421], the “cooperativity α” value ([1]; G382E BRD2^BD2, KLHDC2^SBD) was 3.2, the “(-)TDS” value ([1]; ITC, syringe KLHDC2, cell compound-G382EBRD2BD2, Rep1, Rep2) was 0.62 and 0.68 and the Kd ([1]; Kd, Rep1/Rep2, ITC source data Fig4f, syringe KLHDC2, cell SJ46421-G382EBRD2BD2) was 103 nM and 88.1 nM. The “ITC -TΔS (ternary)” value [1, 6] was 0.65 +/- 0.07 kcal/mol-1, the “ITC N (ternary)” value [1, 6] was 0.9 and the “ITC ΔG (ternary)” value [1, 6] was -9.80 +/- 0.02 kcal/mol-1. For the same compound, the “ITC ΔH (ternary)” value [1, 6] was -10.5 +/- 0.11 kcal/mol-1, the Kd (BRD2^BD2; ITC Kd, cell: SJ46421, syringe: BRD2^BD2) was 2140 ± 306 nM and the “(-)TDS” value (BRD2^BD2; ITC, syringe BRD2BD2, cell compound, Rep1, Rep2) was 2.71 and 2.54. For the same compound, the Kd (BRD2^BD2; Kd, Rep1/Rep2, ITC source data Fig4a, syringe BRD2BD2, cell SJ46421) was 2290 nM and 1890 nM, the “ITC -TΔS” value (BRD2^BD2; [7]) was 2.63 +/- 0.12 kcal/mol-1 and the “ITC N” value (BRD2^BD2; [7]) was 0.9. For the same compound, the “ITC ΔH” value (BRD2^BD2; [7]) was -10.5 +/- 0.45 kcal/mol-1, the “ΔG (binary + ternary)” value (KLHDC2^SBD / BRD2^BD2; BRD2^BD2) was -18.4 kcal/mol and the “(-)TDS” value (KLHDC2^SBD / BRD2^BD2; [8]) was 1.18 and 0.97. For the same compound, the DH (KLHDC2^SBD / BRD2^BD2; [8]) was -10.5, the “ITC -TΔS (ternary)” value (KLHDC2^SBD / BRD2^BD2; [9]) was 1.08 +/- 0.19 kcal/mol-1 and the “ITC N (ternary)” value (KLHDC2^SBD / BRD2^BD2; [9]) was 0.9. For the same compound, the “ITC ΔG (ternary)” value (KLHDC2^SBD / BRD2^BD2; [9]) was -9.33 +/- 0.05 kcal/mol-1, the “ITC ΔH (ternary)” value (KLHDC2^SBD / BRD2^BD2; [9]) was -10.4 +/- 0.10 kcal/mol-1 and the Kd [2] was 39.7 nM. For the same compound, the “(-)TDS, Rep1” value [2, 10] was -7.43, the “DG, Rep1” value [2, 10] was -10.3 and the “DH, Rep1” value [2, 10] was -2.9. The “(-)TDS” value [2, 11] was -7.43, the DG [2, 11] was -10.3 and the DH [2, 11] was -2.9. For the same compound, the “cooperativity α” value ([2]; R112A KLHDC2^SBD, estimated from the binding affinity of SJ46421 to WT KLHDC2) was 7.6, the “ITC -TΔS (ternary)” value [2, 12] was -7.43 kcal/mol-1 and the “ITC N (ternary)” value [2, 12] was 0.8. The “ITC ΔG (ternary)” value [2, 12] was -10.3 kcal/mol-1, the “ITC ΔH (ternary)” value [2, 12] was -2.9 kcal/mol-1 and the “KLHDC2 level, Western blot quantification” value (KLHDC2; Fig 6b, KO/Rescue, 5 uM, DMSO printed 0) was 0. For the same compound, the “KLHDC2 level, Western blot quantification (DMSO = 100)” value (shortened to “KLHDC2 level … (DMSO = 100)”) (KLHDC2; Fig 6b, U2OS, 5 uM) was 103.737 and 122.001, the “KLHDC2 level … (DMSO = 100)” value (KLHDC2; Fig S6a, 293T cells, 2.5 uM) was 109.414 and 102 and the “KLHDC2 level … (DMSO = 100)” value (KLHDC2; Fig S6a, 293T cells, 5 uM) was 112.068 and 103. For the same compound, the “KLHDC2 level … (DMSO = 100)” value (KLHDC2; Fig S6b, MDA-MB468 Cells, 10 uM) was 128.202 and 120, the “KLHDC2~UB level, Rep1/Rep2” value ([3]; Monomer, + BRD3-SJ46421, pre-incubation 0) was 0.5851 and 0.3857 and the “KLHDC2~UB level, Rep1/Rep2” value ([3]; Tetramer, + BRD3-SJ46421, pre-incubation 0) was 67.2962 and 61.2938. The “KLHDC2~UB level, Rep1/Rep2” value ([3]; Tetramer, + BRD3-SJ46421, pre-incubation 2) was 32.2274 and 23.9384, the “KLHDC2~UB level, Rep1/Rep2” value ([3]; Tetramer, + BRD3-SJ46421, pre-incubation 5) was 1.6168 and 2.133 and the “cooperativity α” value ([4]; G386E BRD4^BD2, KLHDC2^SBD) was 13 and 12.7. For the same compound, the Kd ([4]; Kd, Rep1/Rep2, ITC source data Fig4f, syringe KLHDC2, cell SJ46421-G386EBRD4BD2) was 23.4 nM and 25.9 nM, the “ITC -TΔS (ternary)” value [4, 13] was -1.30 +/- 0.11 kcal/mol-1 and the “ITC N (ternary)” value [4, 13] was 0.9. The “ITC ΔG (ternary)” value [4, 13] was -10.6 +/- 0.04 kcal/mol-1, the “ITC ΔH (ternary)” value [4, 13] was -9.05 +/- 0.37 kcal/mol-1 and the “cooperativity α” value ([5]; E344G BRD3^BD2, KLHDC2^SBD) was 1.7. The Kd ([5]; Kd, Rep1/Rep2, ITC source data Fig4f, syringe KLHDC2, cell SJ46421-E344GBRD3BD2) was 187 nM and 175 nM, the “ITC -TΔS (ternary)” value [5, 14] was -2.23 +/- 0.12 kcal/mol-1 and the “ITC N (ternary)” value [5, 14] was 1.0. The “ITC ΔG (ternary)” value [5, 14] was -9.42 +/- 0.08 kcal/mol-1, the “ITC ΔH (ternary)” value [5, 14] was -7.19 +/- 0.05 kcal/mol-1 and the “cooperativity α” value (KLHDC2^SBD / BRD4^BD2; BRD4^BD2, KLHDC2^SBD) was 2.8. For the same compound, the “ITC -TΔS (ternary)” value (KLHDC2^SBD / BRD4^BD2; [15]) was -1.51 +/- 0.11 kcal/mol-1, the “ITC N (ternary)” value (KLHDC2^SBD / BRD4^BD2; [15]) was 0.8 and the “ITC ΔG (ternary)” value (KLHDC2^SBD / BRD4^BD2; [15]) was -9.72 +/- 0.04 kcal/mol-1. The “ITC ΔH (ternary)” value (KLHDC2^SBD / BRD4^BD2; [15]) was -8.22 +/- 0.09 kcal/mol-1.
